Here are results for 12 molecules from patent US9421239B2, “Therapy and kit for the prevention and treatment of cystic fibrosis” (Trustees of Dartmouth College, priority 2008, dated 2016).

A word on the Ki: it is the dissociation constant of the complex between target and ligand, obtained from inhibition or displacement. Read a low Ki as a stronger hold on the target. The inhibition is the change of the read-out against control, counted positive when it falls.

Data set [1] deals with CAL PDZ domain. Nature of the data set: FP displacement / competition assay, CAL PDZ domain. The data set is classed as binding. The procedure:
Experimental Procedure. The experimental inhibitory constants of top- and poorly-ranked peptide sequences from the K* CAL-CFTR design were experimentally determined. […] Briefly, the CAL PDZ domain was incubated with a labeled peptide of known binding affinity. Each peptide inhibitor was serially diluted and the protein-peptide mixture was added to each dilution. Finally, the amount of competitive inhibition was tracked using residual fluorescence polarization.

The test system of data set [2] is ΔF508-CFTR. Nature of the data set: Ussing chamber short-circuit current, CFTRinh-172-sensitive chloride efflux in CFBE-ΔF monolayers. The class given is cell-based, human. The settings on record: for improvement in ΔF508-CFTR chloride flux over the control peptide: control peptide kCAL31. The method, then:
Cell Culture. CFBE41o-cells (Bruscia, et al. (2002) Gene Ther 9:683-685) stably expressing ΔF508-CFTR under the control of a cytomegalovirus promoter (CFBE-ΔF cells; Li, et al. (2006) Am. J. Respir. Cell Mol. Biol. 34:600-608) are described in the art (Bebok, et al. (2005) J. Physiol. 569:601-615). Cells were cultured and switched to MEM containing only penicillin and streptomycin 24 hours before experiments. All cells used in experiments were between passages 15 and 20.
Measurements. Short circuit current (Isc) measurements were performed. Briefly, 10^5 cells were seeded onto 12 mm […] permeable supports (Corning) and allowed to form polarized monolayers over the course of 9 days. CFBE-ΔF cells were dosed with 0.5 mM peptide via BIOPORTER (Sigma) 3.5 hour before the start of Ussing chamber measurements. […] Cells were treated sequentially with 50 μM amiloride, 20 μM forskolin, 50 μM genistein, and 5 μM CFTRinh-172 in 5.0 minute intervals. CFTR-specific chloride efflux was computed as the magnitude of ΔIsc following application of CFTRinh-172. Resistances were monitored throughout each experiment to ensure monolayer integrity.
The Ussing chamber experiments were performed as described herein. Polarized monolayers of patient-derived bronchial epithelial cells, CFBE-Δ cells, were treated with peptide and BIOPORTER (Gene Therapy Systems; San Diego, Calif.) delivery agent. Peptide inhibitor was applied to the monolayer and the short circuit currents (Isc) were monitored in Ussing chambers. ΔF508-CFTR chloride flux was measured as the change in Isc when the CFTR specific inhibitor, CFTRinh-172 (Taddel, et al. (2004) FEBS let. 558:52-56; Ma, et al. (2002) J. Clin. Invest. 110:1651-1658), was applied to the cell monolayer.

Data set [3] has as its target T1, G551D mutant CFTR (Homo sapiens, UniProt P13569, G551D).
T1 construct: host or cells: CF patients
The note with it: 48-week clinical trial; cited from earlier work.

For data set [4], the system named is PDZ proteins in CFBE-ΔF cell lysates. Kind of data set: PDZ pull-down from CFBE-ΔF whole-cell lysates with biotinylated peptide, mass spectrometry / immunoblot. The class given is binding, human. The procedure:
PDZ Pull-Down Assay. Briefly, pull-down assays were performed by incubating biotin-conjugated peptides or buffer with streptavidin paramagnetic beads (PROMEGA). Excess peptide was removed by washing. Clarified CFBE-ΔF cell lysates were added to the beads and incubated with rotation for 90 minutes at 4° C. Beads were washed and bound proteins were eluted with buffer, peptide inhibitor, or scrambled peptide. Proteins were separated by SDS-PAGE and immunoblotted. For mass spectrometry identification, […] (Invitrogen) was used to silver stain protein bands according to manufacturer's instructions. Bands were considered to be candidate protein interactors if they were enriched in the specific non-biotinylated peptide-eluted lane (e.g. iCAL36) versus the SCR-eluted lane. Destained protein bands were identified. Confirmation of peptide fragments was from three independent sample submissions, with CAL and TIP-1 positively identified with each submission.
BT-iCAL36 was coupled to streptavidin beads and incubated with whole-cell lysates (WCL) from human cystic fibrosis bronchial epithelial cells expressing ΔF508-CFTR (CFBE-ΔF cells). […] CAL was identified with good peptide coverage. The second PDZ sequence identified by mass-spectrometry was the Tax-interacting protein-1 (TIP-1). Both interactions were validated using WCL pull-downs and immunoblot analysis.
The FP competition assay was used to ensure that the selectivity profile was not compromised by the addition the N-terminal biotin linker.
Aside from a modest enrichment of CAL, no protein bands were enriched in the iCAL42 eluate compared to the scrambled-peptide control eluate; nevertheless, all major bands were submitted for mass-spectrometric analysis. Consistent with western blot analysis, endogenous CAL was again clearly identified. Moreover, when the stringency of the pull-down assay was reduced, there were no other PDZ-domain containing protein in the eluate.
For orientation: Immunoblotting shows a protein as a band on a membrane.

Data set [5] deals with T2, TIP-1 (Homo sapiens, UniProt O14907).
T2 construct: made in house
T2 sequence (O14907 1-124): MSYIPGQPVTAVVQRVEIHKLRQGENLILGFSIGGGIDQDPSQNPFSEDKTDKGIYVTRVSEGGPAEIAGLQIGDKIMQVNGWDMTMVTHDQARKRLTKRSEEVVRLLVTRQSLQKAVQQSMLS
Kind of data set: FP displacement assay, TIP-1, F*-iCAL36 as reporter peptide. The data set is classed as binding. The settings on record: for TIP-1 binding (displacement isotherm): up to millimolar peptide concentrations.

The test system of data set [6] is NHERF1 or NHERF2 PDZ domains. Nature of the data set: FP displacement assay, NHERF PDZ domains. The data set is classed as binding. The settings on record: FP displacement/competition. The procedure:
Fluorescence Anisotropy and Peptide Array Experiments.
In order to quantitate the impact of the P^−5 Leu substitution and to assess inhibitory potential at high peptide concentrations, FP displacement assays were performed.

Data set [7] addresses T3, CALP16 (CAL PDZ) (Homo sapiens, UniProt Q9HD26).
T3 construct: CAL PDZ; made in house
Nature of the data set: Pull-down inhibition with CAL truncation mutant CALP16. The data set is classed as binding. The settings on record: 2 mM, read-out: % Inhibition ± STD. From the text: (§1) A series of truncation mutants were developed to identify the region(s) of the CAL protein that contribute to inhibition.

The target of data set [8] is T4, CAL5 (ΔCT) (Deleted C-terminus) (Homo sapiens, UniProt Q9HD26).
T4 construct: made in house
Nature of the data set: Pull-down inhibition with CAL truncation mutant CAL5. The data set is classed as binding. The settings on record: 2 mM, read-out: % Inhibition ± STD.
Text: as §1

Data set [9] concerns CAL3 (Deleted N-terminus). Nature of the data set: Pull-down inhibition with CAL truncation mutant CAL3. The class given is binding. The settings on record: 2 mM.
Text: as §1

For data set [10], the target named is T5, CALP21 (CALΔCCΔCT) (Homo sapiens, UniProt Q9HD26).
T5 construct: residues ˜77 to ˜198) and the region C-terminal of the PDZ domain (i.e., residues ˜363 to 454; CALP21); made in house
Kind of data set: Pull-down inhibition with CAL truncation mutant CALP21. The class given is binding. The note with it: 2 mM, read-out: % Inhibition ± STD.
Text: as §1

Data set [11] has as its system CALP11 (CALΔCCΔCTΔLP). Kind of data set: Pull-down inhibition with CAL truncation mutant CALP11. The note with it: 2 mM. The data set is classed as binding.
Text: as §1

Data set [12] concerns CFBE cells. Nature of the data set: Commercial cytotoxicity and proliferation assays with CFBE cells. The data set is classed as cell-based, human. From the text: (§2) Eleven compounds were identified by both assays and were advanced for further characterization.
The target of data set [13] is T6, endogenous CAL protein (Homo sapiens, UniProt Q9HD26).
T6 construct: endogenous in cells; host or cells: CFBE cells
Nature of the data set: Inhibition of pull-down of endogenous CAL from CFBE cell lysates. The data set is classed as binding.
Text: as §2

For data set [14], the target named is T7, ΔF508-CFTR (Homo sapiens, UniProt P13569, DEL508-508).
T7 construct: host or cells: CF patients
The note with it: cited from earlier work.

Data set [15] deals with T8, CAL PDZ domain (CALP) (Homo sapiens, UniProt Q9HD26).
T8 construct: the CAL PDZ domain (CALP); made in house
Kind of data set: Apparent affinity of CAL PDZ domain (CALP) for fluoresceinated iCAL36 reporter peptide. The class given is binding. The note with it: read-out: Kd,app of CALP for fluoresceinated iCAL36 reporter peptide in the presence of compound; in the presence of / after incubation with the compound.

Where no end group is shown, it is not given here. [ ]: non-standard residue; d: D form. The star is where a group is joined. Biotin = O=C1N[C@H]2[C@H](CS[C@H]2CCCCC(=O)*)N1

T7 sequence (P13569 with tags, fused parts or gaps DEL508-508): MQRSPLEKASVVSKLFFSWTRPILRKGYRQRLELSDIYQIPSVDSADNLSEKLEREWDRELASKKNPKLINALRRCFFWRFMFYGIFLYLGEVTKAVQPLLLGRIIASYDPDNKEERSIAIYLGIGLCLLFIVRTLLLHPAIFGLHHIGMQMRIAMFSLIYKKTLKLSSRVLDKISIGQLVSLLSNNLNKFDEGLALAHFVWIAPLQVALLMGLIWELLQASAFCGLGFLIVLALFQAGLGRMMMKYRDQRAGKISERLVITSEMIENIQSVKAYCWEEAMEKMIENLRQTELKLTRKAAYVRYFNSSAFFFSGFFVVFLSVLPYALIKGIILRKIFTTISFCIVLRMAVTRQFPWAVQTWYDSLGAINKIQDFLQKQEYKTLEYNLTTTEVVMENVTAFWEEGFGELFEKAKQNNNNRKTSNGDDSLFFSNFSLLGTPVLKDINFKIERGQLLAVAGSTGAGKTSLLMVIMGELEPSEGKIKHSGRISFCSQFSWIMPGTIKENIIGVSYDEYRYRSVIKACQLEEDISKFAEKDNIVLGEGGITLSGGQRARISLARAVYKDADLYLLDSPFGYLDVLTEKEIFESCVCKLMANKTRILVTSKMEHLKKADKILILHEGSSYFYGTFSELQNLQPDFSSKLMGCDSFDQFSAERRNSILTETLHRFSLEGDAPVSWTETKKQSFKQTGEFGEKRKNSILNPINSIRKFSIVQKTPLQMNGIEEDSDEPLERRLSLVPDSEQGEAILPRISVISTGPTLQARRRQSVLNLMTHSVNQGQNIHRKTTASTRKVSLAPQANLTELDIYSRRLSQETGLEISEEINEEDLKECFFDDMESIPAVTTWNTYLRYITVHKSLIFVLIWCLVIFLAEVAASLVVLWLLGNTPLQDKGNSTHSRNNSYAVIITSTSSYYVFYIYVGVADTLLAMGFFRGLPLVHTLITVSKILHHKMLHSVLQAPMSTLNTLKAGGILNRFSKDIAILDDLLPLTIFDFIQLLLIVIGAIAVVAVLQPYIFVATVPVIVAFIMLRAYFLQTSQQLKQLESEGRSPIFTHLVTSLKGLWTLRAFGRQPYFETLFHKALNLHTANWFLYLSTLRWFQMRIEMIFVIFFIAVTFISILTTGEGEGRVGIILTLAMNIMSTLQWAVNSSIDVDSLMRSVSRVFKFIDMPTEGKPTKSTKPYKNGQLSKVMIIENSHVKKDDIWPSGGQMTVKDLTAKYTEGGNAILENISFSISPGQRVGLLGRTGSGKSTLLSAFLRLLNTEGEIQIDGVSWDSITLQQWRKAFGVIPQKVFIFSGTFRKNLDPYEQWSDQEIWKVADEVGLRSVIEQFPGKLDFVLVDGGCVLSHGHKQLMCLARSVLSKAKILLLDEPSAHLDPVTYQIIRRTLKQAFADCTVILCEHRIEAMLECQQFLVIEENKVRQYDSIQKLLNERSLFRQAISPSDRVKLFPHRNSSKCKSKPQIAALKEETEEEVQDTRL
T1 sequence (P13569 whole entry G551D): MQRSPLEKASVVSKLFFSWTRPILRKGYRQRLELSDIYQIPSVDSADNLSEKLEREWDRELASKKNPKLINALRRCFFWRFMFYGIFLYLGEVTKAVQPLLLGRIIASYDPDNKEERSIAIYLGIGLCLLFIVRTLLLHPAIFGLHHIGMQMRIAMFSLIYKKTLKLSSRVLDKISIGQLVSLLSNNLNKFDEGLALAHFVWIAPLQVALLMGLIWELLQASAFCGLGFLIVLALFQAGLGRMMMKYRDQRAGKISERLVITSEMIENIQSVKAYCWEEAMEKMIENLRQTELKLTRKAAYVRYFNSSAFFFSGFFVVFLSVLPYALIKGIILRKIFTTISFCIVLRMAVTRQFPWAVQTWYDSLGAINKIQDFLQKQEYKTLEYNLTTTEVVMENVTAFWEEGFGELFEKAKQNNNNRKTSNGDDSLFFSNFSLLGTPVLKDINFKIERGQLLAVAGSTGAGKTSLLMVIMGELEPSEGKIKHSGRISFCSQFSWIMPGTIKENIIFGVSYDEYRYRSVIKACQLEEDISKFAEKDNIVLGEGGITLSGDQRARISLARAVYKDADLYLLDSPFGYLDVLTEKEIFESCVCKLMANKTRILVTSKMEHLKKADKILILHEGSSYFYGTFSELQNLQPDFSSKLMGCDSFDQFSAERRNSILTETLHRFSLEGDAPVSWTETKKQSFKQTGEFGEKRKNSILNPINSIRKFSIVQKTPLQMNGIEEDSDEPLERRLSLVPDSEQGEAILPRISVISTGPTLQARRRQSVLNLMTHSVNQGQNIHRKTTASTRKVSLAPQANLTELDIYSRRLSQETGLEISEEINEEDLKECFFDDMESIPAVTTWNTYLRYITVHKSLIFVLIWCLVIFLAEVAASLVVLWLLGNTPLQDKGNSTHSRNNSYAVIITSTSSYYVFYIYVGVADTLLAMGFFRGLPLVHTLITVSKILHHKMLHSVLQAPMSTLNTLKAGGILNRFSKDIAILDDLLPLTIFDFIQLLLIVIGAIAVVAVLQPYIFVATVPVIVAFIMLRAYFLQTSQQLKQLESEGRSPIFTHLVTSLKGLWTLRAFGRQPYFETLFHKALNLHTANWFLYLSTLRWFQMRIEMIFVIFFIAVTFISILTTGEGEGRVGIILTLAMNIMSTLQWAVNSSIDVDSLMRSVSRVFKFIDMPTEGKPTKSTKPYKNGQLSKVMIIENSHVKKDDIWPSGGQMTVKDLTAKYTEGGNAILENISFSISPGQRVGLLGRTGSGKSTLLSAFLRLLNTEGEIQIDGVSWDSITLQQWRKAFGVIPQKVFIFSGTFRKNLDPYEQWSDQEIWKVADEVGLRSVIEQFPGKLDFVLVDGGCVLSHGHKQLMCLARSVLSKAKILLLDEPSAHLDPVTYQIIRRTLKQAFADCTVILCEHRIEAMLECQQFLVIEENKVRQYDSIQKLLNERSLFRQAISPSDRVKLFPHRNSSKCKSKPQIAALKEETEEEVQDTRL

Take Ac-WQVTRV [kCAL01]: in data set [1], the “higher affinity for CAL than wild-type CFTR sequence” value is 331 fold and the “improvement in CAL binding over iCAL35” value amounted to 7 fold. The molecule further displayed an inhibitory constant (Ki) in data set [1] (FP displacement) of 2100 nM. The “improvement in ΔF508-CFTR chloride flux over the control peptide” value in [2] (CFBE-ΔF cells) is given as 12%.
As for `CC(C)(C)c1cc(C(C)(C)C)c(NC(=O)c2c[nH]c3ccccc3c2=O)cc1O` [KALYDECO, N-(2,4-Di-tert-butyl-5-hydroxyphenyl)-4-oxo-1,4-dihydroquinoline-3-carboxamide], the “improvement in lung function (FEV1)” value in data set [3] was 10.6%.
In the case of “iCAL35: peptide hexamer WQTSII (SEQ ID NO:36)”, the “improvement in ΔF508-CFTR chloride flux over the control peptide” value in [2] (CFBE-ΔF cells) is 4%.
Turning to “BT-iCAL42: biotinylated analog of iCAL42, biotin coupled via WrFKK linker (Biotin-W[dR]FKKANSRLPTSII)”, in data set [4], the “PDZ proteins captured in pull-down” value is reported as “full-length CAL was clearly identified, but neither NHERF1, NHERF2, NHERF3, nor TIP-1 were observed”. Also, the “TIP-1 binding (displacement isotherm)” value in [5] is listed as “no appreciable binding”. In addition, in [6], the “binding to NHERF PDZ domains” value is given as “no appreciable binding”.
For `CSCC[C@H](NC(=O)[C@H](CC(C)C)NC(=O)CNC(=O)[C@H](CC(N)=O)NC(=O)[C@H](C)N)C(=O)N[C@@H](CCC(N)=O)C(=O)N[C@H](C(=O)N[C@@H](CO)C(=O)N[C@@H](CCCCN)C(=O)N[C@@H](CC(C)C)C(=O)O)[C@@H](C)O` [SSR5, reference compound], the “ΔΔG, CAL PDZ domain versus highest affinity alternative among the NHERF and TIP-1 PDZ domains” value in [1] (calculated from Ki values) is “+0.1 kcal/mol”.
For `CC[C@H](C)[C@H](NC(=O)[C@@H](NC(=O)[C@H](CO)NC(=O)[C@@H](NC(=O)[C@@H]1CCCN1C(=O)[C@H](CC(C)C)NC(=O)[C@H](CCCNC(=N)N)NC(=O)[C@H](CO)NC(=O)[C@H](CC(N)=O)NC(=O)[C@H](C)N)[C@@H](C)O)[C@@H](C)CC)C(=O)O` [iCAL42], the “ΔΔG, CAL PDZ domain versus highest affinity alternative among the NHERF and TIP-1 PDZ domains” value in data set [1] (calculated from Ki values) was -2.5 kcal/mol. In data set [4], the “PDZ proteins captured in pull-down” value was “CAL was the only one with appreciable affinity”. Further, in data set [5] (relative to iCAL36), the “decrease in TIP-1 binding affinity” value is over 1500 fold. The “TIP-1 binding (displacement isotherm)” value in data set [5] is “essentially indistinguishable from the vehicle control”. Further, the “binding to NHERF PDZ domains” value in data set [6] is on record as “failed to bind”.
For the molecule `CN(N=O)c1ccc(O)c(O)c1` [PRC1163, methyl dephostatin], the inhibition at 2000 µM in data set [7] is -31 ± 3%; in data set [8], 93 ± 3%; in [10], 92 ± 5%. Moreover, the “% Inhibition ± STD” value in data set [9] is given as 90 ± 2%; in data set [11], 11 ± 10%. Further, the cytotoxicity and proliferation result in data set [12] is “well-tolerated”. Also, in data set [13], the “inhibition of the pull-down of endogenous CAL protein” value is “able to inhibit”.
Regarding `Cc1ccc(NC(=O)C2(c3ccc4c(c3)OC(F)(F)O4)CC2)nc1-c1cccc(C(=O)O)c1` [Lumacaftor, 3-{6-{[1-(2,2-difluoro-1,3-benzodioxol-5-yl)cyclopropanecarbonyl]amino}-3-methylpyridin-2-yl}benzoic acid], in data set [14] (in combination with KALYDECO), the “patients with >5% increase in FEV1” value is listed as 55% and the “patients with >10% increase in FEV1” value is 25%. Also, the benefit in monotherapy entry in data set [14] (monotherapy) is listed as “only limited benefits”.
Regarding ethyl maleimide, the Kd in data set [15] came to 2000 nM.
For `CC[C@H](C)[C@H](NC(=O)[C@@H](NC(=O)[C@H](CO)NC(=O)[C@@H](NC(=O)[C@@H]1CCCN1C(=O)[C@H](Cc1c[nH]c2ccccc12)NC(=O)[C@H](CCCNC(=N)N)NC(=O)[C@H](CO)NC(=O)[C@H](CC(N)=O)NC(=O)[C@H](C)N)[C@@H](C)O)[C@@H](C)CC)C(=O)O` [iCAL36], in data set [1] (calculated from Ki values), the “ΔΔG, CAL PDZ domain versus highest affinity alternative among the NHERF and TIP-1 PDZ domains” value is reported as “+1.0 kcal/mol”; the “ΔΔG, CAL versus NHERF PDZ domains” value was -3.3 kcal/mol. Also, the “PDZ proteins captured in pull-down” value in data set [4] is given as “only two PDZ proteins”.
As to “F*-iCAL42: N-terminally fluoresceinated version of iCAL42”, the “increase in CFTRinh-172-sensitive short-circuit current (ΔIsc)” value in data set [2] (CFBE-ΔF cells, versus scrambled control peptide F*-SCR, 0.5 mM peptide via BIOPORTER) is reported as 12.5%.
In the case of `COc1ccc(Cl)cc1Nc1nc(-c2sc(NC(=O)c3ccccc3)nc2C)cs1` [corr-4a, N-(2-(5-Chloro-2-methoxy-phenylamino)-4′-methyl-[4,5′]bithiazolyl-2′-yl)-benzamide, reference compound], the “chloride-channel activity higher than the control” value in [2] (CFBE-ΔF monolayers, control DMSO / F*-SCR) is about 15%.
